For 27 molecules, IC50 results are on record in patent publication US8431596B2 (Cancer Research Technology Limited, priority 2007, dated 2013).

For this assay, the target named is T1, AXL (human catalytic domain) (Homo sapiens, UniProt P30530).
T1 construct: purchased Upstate Ltd. 14-512
T1 sequence (P30530 473-894): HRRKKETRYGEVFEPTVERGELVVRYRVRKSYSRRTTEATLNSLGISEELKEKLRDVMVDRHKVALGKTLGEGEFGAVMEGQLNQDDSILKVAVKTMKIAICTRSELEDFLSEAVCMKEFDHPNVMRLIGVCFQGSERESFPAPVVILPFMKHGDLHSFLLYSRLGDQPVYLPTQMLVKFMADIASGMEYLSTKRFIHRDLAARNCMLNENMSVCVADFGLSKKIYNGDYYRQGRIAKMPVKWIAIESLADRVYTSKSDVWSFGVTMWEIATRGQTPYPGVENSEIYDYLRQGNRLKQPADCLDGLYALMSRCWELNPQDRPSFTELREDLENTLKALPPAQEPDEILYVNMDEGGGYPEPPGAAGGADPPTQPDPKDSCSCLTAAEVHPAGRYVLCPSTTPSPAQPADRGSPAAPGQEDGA
As to the kind of experiment: AXL (human catalytic domain) Enzyme Activity Assay (IMAP fluorescence polarisation). The format is biochemical. The procedure, abridged: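 Recombinant human AXL isoform 1 (aa473-894; final 15 nM) phosphorylated 100 nM fluorescein-CSK-tide with 150 μM ATP (KM) in HEPES pH 7.0/MgCl2/DTT buffer for 60 min at room temperature. IMAP fluorescence polarisation read after overnight binding; IC50 from 10-point 4-parameter logistic fits.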
For orientation: Fluorescence polarisation rises when a labelled molecule tumbles more slowly, as on binding a larger partner.

[1] abbreviates: further data set (WW-001 through WW-169, XX-001 through XX-469, YY-001 through YY-016, ZZ-001 through ZZ-003), 150 μM ATP.
[2] abbreviates: first data set, recombinant AXL isoform 1 aa473-894, 150 μM ATP.

Each structure is given as a SMILES string.

Broadly, the IC50 is the concentration needed to halve the response being measured. Consider `c1cc(-c2ccc(Cn3cccn3)cc2)n2nc(Nc3ccc(OCCN4CCCC4)cc3)nc2c1` [XX-270], for which the IC50 under setting [1] was in the range of 100 to 1000 nM.

As to `NCCCNc1ccc(-c2cccc3nc(NC(=O)C4CC4)nn23)cc1` [WW-157], the half-inhibitory concentration (IC50) is, setting by setting: under setting [2], 1000 to 10000 nM; under setting [1], 1000 to 10000 nM.

On to `O=C(Nc1nc2cccc(-c3ccccc3O)n2n1)C1CC1` [WW-037], for which the IC50 runs as follows: under setting [2], 1000 to 10000 nM; under setting [1], 1000 to 10000 nM.

The molecule `CN1CCOc2cc(-c3cccc4nc(Nc5ccc(OCCN6CCCC6)cc5)nn34)ccc21` [XX-093] had an IC50 under setting [1] of 100 to 1000 nM.

For `C#CCOc1ccc(-c2cccc3nc(NC(=O)C4CC4)nn23)cc1` [WW-122], the concentration for half-maximal inhibition (IC50) under setting [2] lay in the range of 1000 to 10000 nM and the half-maximal inhibitory concentration (IC50) under setting [1] was 1000 to 10000 nM.

Regarding `O=C(Nc1nc2cccc(-c3ccccc3F)n2n1)C1CC1` [WW-025], the 50% inhibitory concentration (IC50) by setting is: under setting [2], 1000 to 10000 nM; under setting [1], 1000 to 10000 nM.

Consider `CC(C)Oc1cccc(-c2cccc3nc(NC(=O)C4CC4)nn23)c1` [WW-152], for which the IC50 is 1000 to 10000 nM under setting [2] and 1000 to 10000 nM under setting [1].

As to `Cc1cc(-c2cccc3nc(NC(=O)C4CC4)nn23)cnc1F` [WW-088], the IC50 by setting is: under setting [2], 1000 to 10000 nM; under setting [1], 1000 to 10000 nM.

On to `COc1ccc(CNc2cccc3nc(NC(=O)C4CC4)nn23)cc1` [WW-167], for which the IC50 lay in the range of 1000 to 10000 nM under setting [2] and 1000 to 10000 nM under setting [1].

As to `CCC(C)S(=O)(=O)n1cc(-c2cccc3nc(Nc4ccc(OCCN5CCCC5)cc4)nn23)cn1` (stereo not drawn) [XX-383], the concentration for half-maximal inhibition (IC50) under setting [1] was no more than 100 nM.

Molecule `Cc1cc(C)cc(-c2nccc3nc(Nc4ccc(OCCN5CCCC5)cc4)nn23)c1` [YY-015] registered a half-maximal inhibitory concentration (IC50) under setting [1] of 100 to 1000 nM.

Take `CC(C)(C)OC(=O)Nc1cccc(-c2cccc3nc(Nc4ccc(OCCN5CCCC5)cc4)nn23)c1` [XX-156]: under setting [1], the IC50 is 1000 to 10000 nM.

Take `Cc1c(-c2cccc3nc(NC(=O)C4CC4)nn23)cnn1-c1ccccc1` [WW-148]: the IC50 runs as follows: under setting [2], 1000 to 10000 nM; under setting [1], 1000 to 10000 nM.

Molecule `NCc1cccc(-c2cccc3nc(Nc4ccc(OCCN5CCCC5)cc4)nn23)c1` [XX-308, [5-(3-Aminomethyl-phenyl)-[1,2,4]triazolo[1,5-a]pyridin-2-yl]-[4-(2-pyrrolidin-1-yl-ethoxy)-phenyl]-amine] came in with a concentration for half-maximal inhibition (IC50) under setting [1] of 1000 to 10000 nM.

Turning to `CNCCOc1ccc(Nc2nc3cccc(-c4ccc(OC)cc4)n3n2)cc1` [XX-022], the IC50 is less than 1000 nM under setting [2] and 100 to 1000 nM under setting [1].

The molecule `COc1c(C)cc(-c2cccc3nc(Nc4ccc(OCCN5CCCC5)cc4)nn23)cc1C` [XX-207] displayed a half-maximal inhibitory concentration (IC50) under setting [1] of 100 to 1000 nM.

The molecule `CNC(=O)c1ccc(-c2cccc3nc(Nc4ccc(OCCN5CCCC5)cc4)nn23)cc1` [XX-269] had an IC50 under setting [1] of 1000 to 10000 nM.

With `COc1ccc(-c2cccc3nc(Nc4ccc(OCCN)cc4)nn23)cc1` [XX-046], the IC50 is less than 1000 nM under setting [2] and no more than 100 nM under setting [1].

For the molecule `CN(C)C(=O)c1ccc(-c2cccc3nc(NC(=O)C4CC4)nn23)cc1` [WW-029], the 50% inhibitory concentration (IC50) lay within 1000 to 10000 nM under setting [2] and 1000 to 10000 nM under setting [1].

In the case of `O=C(Nc1nc2cccc(-c3ccsc3)n2n1)C1CC1` [WW-059], the IC50 under setting [2] is less than 1000 nM and the IC50 under setting [1] is 100 to 1000 nM.

For the molecule `CCCNC(=O)Cn1cc(-c2cccc3nc(Nc4ccc(OCCN5CCCC5)cc4)nn23)cn1` [XX-441], the 50% inhibitory concentration (IC50) under setting [1] is 100 to 1000 nM.

As to `COc1ccc(-c2cccc3nc(NC(=O)CC4CC4)nn23)cc1` [WW-038], the IC50 is, setting by setting: under setting [2], 1000 to 10000 nM; under setting [1], 1000 to 10000 nM.

Regarding `CN(C)CCOc1ccc(Nc2nc3cccc(-c4ccc5occc5c4)n3n2)cc1` [XX-051], the half-inhibitory concentration (IC50) runs as follows: under setting [2], less than 1000 nM; under setting [1], no more than 100 nM.

Consider `c1ccc2cc(-c3cccc4nc(Nc5ccc(OCCN6CCCC6)cc5)nn34)ccc2c1` [XX-242], for which the half-maximal inhibitory concentration (IC50) under setting [1] was 100 to 1000 nM.

On to `c1cc(-c2ccncc2)cc(-c2cccc3nc(Nc4ccc(OCCN5CCCC5)cc4)nn23)c1` [XX-466], for which the IC50 under setting [1] was 100 to 1000 nM.

Consider `Cn1cc(-c2cccc3nc(NC(=O)C4CC4)nn23)cn1` [WW-064], for which the concentration for half-maximal inhibition (IC50) runs as follows: under setting [2], less than 1000 nM; under setting [1], 100 to 1000 nM.

In turn, `c1cc(-c2ccc3c(c2)OCCO3)n2nc(Nc3cnc(OCCN4CCCCC4)nc3)nc2c1` [XX-098] had an IC50 under setting [1] of 1000 to 10000 nM.
